Where two headings read alike, the source gives them in different places.
What was measured:
[1] = tested on: Caco-2 cells; assay: LDH release of Caco-2 cells; assay type: cell-based, human; conditions: for % LDH/control 10 μM: Caco-2 J4, 10 μM; for % LDH/control 100 μM: Caco-2 J4, 100 μM
Experimental: (§1) The action of Quilamines on the cell viability was analyzed on enterocyte cells of the Caco-2 tumor cell line derived from human colon carcinoma and compared with the action of ICL670 in the presence or absence of exogenous iron, after activation (DFMO) or competitive inhibition by spermidine, of the PTS. The operating conditions used are identical to those used for CHO/CHO-MG and HepG2 cells.
As in the case of the other cell lines in proliferative phase presented here above, the dose-effect curves of the action of the Quilamines on the number of viable cells (number of nuclei) are biphase curves with a cytostatic constituent for concentration values of below 30 micromoles per liter and a cytotoxic constituent with release of LDH for concentration values above 30 micromoles per liter. Only this second cytotoxic constituent is observed when the cells of the Caco-2 cell line are treated after confluence (stopping of the proliferation).

[2] = Calcein test: shift of iron(III) complexated with calcein; assay type: physicochemical; conditions: pH 7.4
Experimental: The Quilamines HQ1-34, HQ1-344, HQ1-343, HQ1-33, HQ1-333, HQ1-44, HQ1-43, HQ1-444, HQ1-443 according to the invention were synthesized and tested. For each Quilamine, its capacity to shift iron (III) complexated with calcein was tested. Calcein is a fluorescent molecule which has a pFe3+ value of 20.3 with pH 7.4 close to the value measured for ligands of low molecular weight present in human or animal cells and complexating the labile iron pool, such as citrate which has a pFe^3+ value of 19.3 with pH of 7.4 (LIP). The fluorescence of calcein is detected on a microplate, in a concentration of 0.1 micromole per liter, in solution in a HEPES buffer (4-(2-hydroxyethyl)-1-piperazine ethane sulfonic acid) with pH 7.4, in a Fusion (Packard) type a microplate fluorescence reader, under excitation at 450 nanometers and analysis of the fluorescence emission at 515 nanometers. The fluorescence of calcein is extinguished in the presence of iron(III) in the form of hydrochloride (chloride) with a concentration of 1 micromole per liter. The addition of Quilamine in different concentrations ranging from 0.01 to 40 micromoles per liter prompts the shifting of iron(III) complexated with calcein towards Quilamine, resulting in a restoration of the fluorescence of the calcein. The dose-effect curves expressing the percentage of restoration of fluorescence of calcein (relative to the fluorescence of the free molecule in the absence of iron), for each Quilamine concentration, makes it possible to deduce the Quilamine concentration prompting the 50% shift of Fe(III) from calcein and the restoration of its associated fluorescence (CE50). These concentration values CE50 are inversely proportional to the chelating capacity of the chelators and the aptitude to mobilize iron from the LIP of the organism.
Comparatively, measurements were made, under the same conditions, of the efficacy in shifting iron(III) complexated with calcein of the two prior-art chelators, 8-hydroxyquinoline and O-trensox, the latter being currently considered to be the chelator having the greatest affinity for iron.

[3] = tested on: HepG2 cells; assay: Anti-proliferative effect on HepG2 cells (nuclei count or SDH activity); assay type: cell-based, human; conditions: 72 h; for IC50: HepG2, absence of exogenous iron, read-out: IC50 associated with the cytostatic effect; for % of HepG2 cells concerned by the anti-proliferative effect: absence of exogenous iron
Text: The majority of the Quilamines, like ICL670, show biphase dose-effect curves in the absence of exogenous iron, with an anti-proliferative constituent for concentration values of 1 to 10 micromoles per liter and a cytotoxic constituent associated with a release of LDH for concentration values of over 10 micromoles per liter. The percentage of HepG2 cells concerned by the anti-proliferative effect and the values of IC50 associated with this cytostatic effect in the absence of exogenous iron were listed in the table 4 below.
The implication of PTS in the cytostatic and cytotoxic action of Quilamines was analyzed in proliferating HepG2 hepatocyte tumor cells after activation of PTS or competitive inhibition of PTS by spermidine, a polyamine naturally present in the organism and most efficaciously captured by the PTS. The conditions of treatment by Quilamines are identical to those described in paragraph III-1.
Inhibiting ornithine decarboxylase (ODC), the key enzyme in the biosynthesis of polyamines, causes a depletion of intra-cell polyamines and an activation of PTS which enables the deficiency to be met. This activation of PTS is done by means of the ODC inhibitor, alpha-difluoromethyl ornithine (DFMO).
The competitive inhibition of PTS by spermidine is prompted by the co-treatment of the cells by the Quilamines in the presence of spermidine, in a concentration of 50 micromoles per liter.

[4] = tested on: Caco-2 cells; assay: Cell viability of proliferating Caco-2 cells (number of nuclei); assay type: cell-based, human; conditions: for IC50: no exogenous iron; for Constituent 1 (1-10 μM) % cell / Constituent 2 (10-100 μM) % cell: Caco-2 J4, no exogenous iron
Experimental: as §1
The results for the measurement of the anti-proliferative effect of Quilamines, and of ICL670 on the proliferating cells (cytostatic constituent) when there is no exogenous iron have been listed in the table 4 below.

[5] = tested on: wild cell line (CHO) of hamster ovarian cells; assay: Anti-proliferative effect on CHO cells, counting of cell nuclei (Hoechst 33342); assay type: cell-based; conditions: 72 h treatment, no exogenous iron; read-out: IC50 CHO
Experimental: The in vitro efficacy of different Quilamines was tested on a wild cell line (CHO) of hamster ovarian cells having PTS and a mutant cell line CHO-MG without PTS. The two cell types CHO and CHO-MG were treated, 24 hours after being seeded in 96-well microplates, by concentrations of different Quilamines ranging from 0.1 to 400 micromoles per liter. The cytostatic (anti-proliferative) effects and cytotoxic effects of Quilamine after 72 hours' treatment of the cells were assessed respectively by counting cell nuclei after DNA marking by the Hoechst 33342 fluorescent intercalant dye and by analysis of membrane damage detected by the dosing of the lactate dehydrogenase activity (LHD) in the supernatants.
The IC50 inhibitor concentration corresponding to the concentration in Quilamines enables the inhibition at 50% of the cell proliferation was deduced from the dose-effect curves of numeration of the nuclei of the living cells on the CHO and CHO-MG cell lines. […] The lower the value of IC50, the greater the efficiency of the anti-proliferative effect of the tested chelators.
A comparison was made of the cytostatic or anti-proliferative action and the cytotoxic action for 72 h of treatment by Quilamine HQ1-44 and 8-hydroxyquinoline and ICL670, on the CHO cell lines in the presence and without the presence of exogenous iron, in the form of Fe(III) citrate in a concentration of 20 micromoles per liter. The results obtained are shown in FIG. 4, FIG. 4A relating to the results on cell viability and FIG. 4B relating to the results on cell toxicity.

[6] = tested on: mutant cell line CHO-MG without PTS; assay: Anti-proliferative effect on CHO-MG cells without PTS, counting of cell nuclei; assay type: cell-based, hamster; conditions: for IC50: 72 h treatment; for Ratio IC50 (CHO-MG/CHO): selectivity of recognition by the PTS
Text: The IC50 inhibitor concentration corresponding to the concentration in Quilamines enables the inhibition at 50% of the cell proliferation was deduced from the dose-effect curves of numeration of the nuclei of the living cells on the CHO and CHO-MG cell lines. These dose-effect curves are sometimes bi-phase curves as in the case of Quilamine HQ1-44 which has an anti-proliferative constituent (without concomitant release of LDH in supernatant) in the range of concentrations of 0.4 to 3 micromoles per liter and a second cytotoxic constituent accompanied by membrane toxicity expressed by the release of LDH for concentrations of over […]. The lower the value of IC50, the greater the efficiency of the anti-proliferative effect of the tested chelators.
Furthermore, the ratio of the IC50 inhibitor concentrations found for the CHO-MG and the CHO cell lines (Ratio IC50 (CHO-MG/CHO)) was computed for several Quilamines according to the invention. This ratio makes it possible to estimate the selectivity of recognition of the different chelators by the PTS: the higher the ratio, the more clearly is the chelator recognized by the PTS. When this ratio is close to 1, the tested chelator is not recognized or is little recognized by the PTS.

[7] = Potentiometry: stability constants and pFe3+ of the iron complex; assay type: physicochemical; conditions: pH 7.4
Experimental: The complexation affinity of Quilamine with the metal ion in the organism reflects the chelating capacity or chelating power of Quilamine. This affinity can be assessed by measuring the value of pW corresponding to −log of the concentration in free metal ion W, i.e. non-complexated by the Quilamine for a ratio of respective concentrations of Quilamine (10 micromoles per liter) and metal ion (1 micromole per liter) equal to 10, at 25° C. and pH 7.4. The higher the value of pW, the greater the affinity of Quilamine with metal ion. The affinity of Quilamine with iron in its ferric form (Fe(III)) and its ferrous form (Fe(II)) is measured respectively by pFe^3+ and pFe^2+ at physiological pH (pH=7.4), at 25° C.
Potentiometry measurements were made in thermostated titration cells at 25±0.1° C., using a Metrohm 702 SM Titrino titrator connected to a Metrohm 6.0233.100. The ligand solution is prepared in a concentration of ˜1.5×10^−3 moles per liter, the solution of Fe^3+ is made from FeCl3 and titrated by complexation with a standard solution of EDTA (ethylenediaminetetracetic acid). The sample for the measurement contained approximately 0.03 millimoles per liter of ligand in a volume of 30 ml where the ionic strength is maintained at 0.1 mole per liter in using KNO3 as a support electrolyte. During the titrations, Fe^3+ is added to 0.45 or 0.9 equivalents of ligand. Each titration consists of 150-200 equilibrium points with pH varying from 2.0 to 11.5, and is repeated at least twice. The thermodynamic constants are computed with the software […] and the speciation diagram of the species is done by the Hyss program.

[8] = Caco-2 J4, cytostatic constituent, read-out: Constituent 1 (1-10 μM) IC50
[9] = Caco-2 J4, cytotoxic constituent, read-out: Constituent 2 (10-100 μM) IC50

Row | SMILES | % LDH/control 10 μM [1] [%] | % LDH/control 100 μM [1] [%] | chelating capacity of HQ1-3 type compared with HQ1-4 type Quilamines [2] | IC50 [3] [µM] | IC50 [4, 8] [µM] | IC50 ([3]; Homo sapiens) [µM] | IC50 ([4]; Homo sapiens, Caco-2 J4, cytostatic constituent, read-out: Constituent 1 (1-10 μM) IC50) [µM] | pFe3+ [7] | % of HepG2 cells concerned by the anti-proliferative effect [3] [%] | IC50 [4, 9] [µM] | Constituent 1 (1-10 μM) % cell [4] [%] | Constituent 2 (10-100 μM) % cell [4] [%] | IC50 ([4]; Homo sapiens, Caco-2 J4, cytotoxic constituent, read-out: Constituent 2 (10-100 μM) IC50) [µM] | IC50 [5] [µM] | IC50 [6] [µM] | Ratio IC50 (CHO-MG/CHO) [6]
1 | NCCCCNCCCCNCCCNCc1ccc2cccc(O)c2n1 [HQ1-344] | 95 | 120 | better chelating capacity | – | – | 1.75 | 3 | – | 10 | – | 22 | 78 | 75 | – | – | –
2 | NCCCCNCCCCNCCCCNCc1ccc2cccc(O)c2n1 [HQ1-444] | 99 | 118 | – | 4.75 | 2 | – | – | – | 10 | 75 | 60 | 40 | – | 6.3 | 240 | 38
3 | O=C(NCCN(CCNC(=O)c1cc(S(=O)(=O)O)c2cccnc2c1O)CCNC(=O)c1cc(S(=O)(=O)O)c2cccnc2c1O)c1cc(S(=O)(=O)O)c2cccnc2c1O [o-Trensox, reference compound] | – | – | – | – | – | – | – | 29.5 | – | – | – | – | – | – | – | –

More lines, main results first:

Row | % LDH/control 10 μM [1] [%] | % LDH/control 100 μM [1] [%] | chelating capacity of HQ1-3 type compared with HQ1-4 type Quilamines [2] | IC50 [3] [µM] | IC50 [4, 8] [µM] | IC50 ([3]; Homo sapiens) [µM] | IC50 ([4]; Homo sapiens, Caco-2 J4, cytostatic constituent, read-out: Constituent 1 (1-10 μM) IC50) [µM] | pFe3+ [7] | SMILES | % of HepG2 cells concerned by the anti-proliferative effect [3] [%] | IC50 [4, 9] [µM] | Constituent 1 (1-10 μM) % cell [4] [%] | Constituent 2 (10-100 μM) % cell [4] [%] | IC50 ([4]; Homo sapiens, Caco-2 J4, cytotoxic constituent, read-out: Constituent 2 (10-100 μM) IC50) [µM] | IC50 [5] [µM] | IC50 [6] [µM] | Ratio IC50 (CHO-MG/CHO) [6]
4 | 100 | 229 | better chelating capacity | 1.75 | 1 | – | – | – | NCCCCNCCCNCc1ccc2cccc(O)c2n1 [HQ1-34] | 5 | 45 | 20 | 80 | – | – | – | –
5 | 93 | 240 | – | 1.75 | 1 | – | – | – | NCCCNCCCCNCc1ccc2cccc(O)c2n1 [HQ1-43] | 10 | 30 | 7 | 93 | – | – | – | –
6 | 89 | 255 | better chelating capacity | 2.15 | 2 | – | – | – | NCCCNCCCCNCCCNCc1ccc2cccc(O)c2n1 [HQ1-343] | 12.5 | 40 | 30 | 70 | – | – | – | –
7 | 88 | 189 | – | 2.25 | 1 | – | – | – | NCCCNCCCCNCCCCNCc1ccc2cccc(O)c2n1 [HQ1-443] | 17.5 | 35 | 5 | 95 | – | 20.2 | 258 | 13

From US20140364454A1, “METAL-CHELATING COMPOUNDS HAVING AT LEAST ONE POLYAMINO CHAIN” (UNIVERSITE DE RENNES I, priority 2011, published 2014)
